Measured values as given in patent US20250170266A1 (ZYMEWORKS BC INC., priority 2022, published 2025).
Read-outs that look alike come from different tables or passages of the source.

Experiments:
Assay type in all cases: cell-based
hTLR7 = target: T1, hTLR7 (Homo sapiens, UniProt Q9NYK1); assay: Reporter Gene Assay (RGA), HEK-Blue hTLR7 reporter cells, SEAP readout; conditions: overnight incubation, SEAP absorbance 620 nm
T1 construct: host or cells: HEK-Blue hTLR7 reporter cells (HEK293-derived, own knowledge)
T1 sequence (Q9NYK1 27-1049): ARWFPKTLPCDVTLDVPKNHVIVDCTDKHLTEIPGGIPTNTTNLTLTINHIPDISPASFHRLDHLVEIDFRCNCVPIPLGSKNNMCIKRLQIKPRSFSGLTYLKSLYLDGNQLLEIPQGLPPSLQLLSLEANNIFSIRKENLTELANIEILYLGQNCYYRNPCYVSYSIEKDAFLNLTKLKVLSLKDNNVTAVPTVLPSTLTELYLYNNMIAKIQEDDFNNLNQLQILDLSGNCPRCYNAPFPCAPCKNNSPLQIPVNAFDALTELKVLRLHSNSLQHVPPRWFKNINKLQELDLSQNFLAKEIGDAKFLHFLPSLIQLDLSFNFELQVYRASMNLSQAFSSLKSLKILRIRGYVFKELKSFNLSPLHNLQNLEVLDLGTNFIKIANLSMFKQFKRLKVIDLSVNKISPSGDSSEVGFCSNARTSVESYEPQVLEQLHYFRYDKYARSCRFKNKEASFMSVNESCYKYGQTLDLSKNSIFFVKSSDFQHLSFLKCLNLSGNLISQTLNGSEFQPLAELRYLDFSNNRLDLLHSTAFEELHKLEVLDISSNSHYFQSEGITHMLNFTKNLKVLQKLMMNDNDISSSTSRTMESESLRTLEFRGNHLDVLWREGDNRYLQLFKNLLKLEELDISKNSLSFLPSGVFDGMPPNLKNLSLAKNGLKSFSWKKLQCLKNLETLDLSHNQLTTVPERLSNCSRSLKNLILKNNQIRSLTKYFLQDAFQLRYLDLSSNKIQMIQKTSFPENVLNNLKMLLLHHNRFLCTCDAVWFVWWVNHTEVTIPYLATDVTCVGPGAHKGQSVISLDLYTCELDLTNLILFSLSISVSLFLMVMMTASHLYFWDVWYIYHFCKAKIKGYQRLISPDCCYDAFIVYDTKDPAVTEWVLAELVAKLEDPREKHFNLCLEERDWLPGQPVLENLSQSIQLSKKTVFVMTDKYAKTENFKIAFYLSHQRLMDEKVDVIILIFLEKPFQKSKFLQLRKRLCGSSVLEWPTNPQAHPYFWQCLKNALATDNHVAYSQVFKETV
Method: (§1) 1.5×10^4 HEK-Blue™ hTLR7 (Invivogen, San Diego, CA) or HEK-Blue™ mTLR7 (Invivogen, San Diego, CA) reporter cells were treated with a titration series of test compound (4-fold titration from […], 11 points). Compounds were initially diluted to 1 mM in DMSO and subsequently serial-diluted in assay media (HEK-Blue™ Detection; Invivogen, San Diego, CA). Cells with test compound were incubated overnight at 37° C.+5% CO2, and the amount of secreted embryonic alkaline phosphatase (SEAP) was determined by measuring absorbance (620 nm) using a Synergy™ H1 microplate reader.
(§2) Each assay included a positive control compound (referred to herein as “benchmark,” see, e.g., TABLE 3 below, and taken from International Patent Publication No. WO2017/072662, structure shown below) and a negative control (growth medium). […] The structure of the benchmark compound from International Patent Publication No. WO 2017/072662 is as follows: […]

mTLR7 = target: T2, mTLR7 (Mus musculus, UniProt P58681); assay: Reporter Gene Assay (RGA), HEK-Blue mTLR7 reporter cells, SEAP readout; conditions: overnight incubation, SEAP absorbance 620 nm
T2 construct: host or cells: HEK-Blue mTLR7 reporter cells (HEK293-derived, own knowledge)
T2 sequence (P58681 27-1050): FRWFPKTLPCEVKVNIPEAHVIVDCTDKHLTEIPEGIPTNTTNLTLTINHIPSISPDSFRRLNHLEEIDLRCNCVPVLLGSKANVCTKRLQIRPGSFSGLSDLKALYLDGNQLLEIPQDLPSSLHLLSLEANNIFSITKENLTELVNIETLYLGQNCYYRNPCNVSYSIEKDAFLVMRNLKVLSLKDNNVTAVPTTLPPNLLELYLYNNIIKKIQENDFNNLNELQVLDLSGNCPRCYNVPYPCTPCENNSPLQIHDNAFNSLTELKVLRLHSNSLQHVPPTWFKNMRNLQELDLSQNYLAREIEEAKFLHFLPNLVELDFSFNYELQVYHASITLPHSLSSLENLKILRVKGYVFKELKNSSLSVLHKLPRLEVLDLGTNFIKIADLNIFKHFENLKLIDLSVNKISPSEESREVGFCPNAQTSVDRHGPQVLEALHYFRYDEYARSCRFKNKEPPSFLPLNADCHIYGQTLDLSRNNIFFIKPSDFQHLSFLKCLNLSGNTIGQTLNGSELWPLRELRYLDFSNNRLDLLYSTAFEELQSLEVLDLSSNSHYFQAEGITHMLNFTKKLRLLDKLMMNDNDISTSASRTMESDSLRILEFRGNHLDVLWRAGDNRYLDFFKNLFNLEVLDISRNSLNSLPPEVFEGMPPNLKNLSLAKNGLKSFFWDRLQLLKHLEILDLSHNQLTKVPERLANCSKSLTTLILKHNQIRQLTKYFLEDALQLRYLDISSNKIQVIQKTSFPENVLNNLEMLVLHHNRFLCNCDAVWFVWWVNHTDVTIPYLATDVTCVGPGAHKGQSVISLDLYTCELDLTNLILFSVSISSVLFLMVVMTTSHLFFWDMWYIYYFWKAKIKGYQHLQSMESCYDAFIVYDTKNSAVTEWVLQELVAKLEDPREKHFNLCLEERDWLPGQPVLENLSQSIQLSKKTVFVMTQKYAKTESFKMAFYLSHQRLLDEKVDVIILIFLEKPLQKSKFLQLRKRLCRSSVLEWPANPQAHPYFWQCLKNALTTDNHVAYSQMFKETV
Method: as §1, §2

[1] = tested on: Human peripheral blood mononuclear cells (PBMCs); assay: Human PBMC Assay, cytokine release (HTRF); conditions: PBMC, 24 hours
Excerpt: Human peripheral blood mononuclear cells (PBMCs) were isolated from fresh Leukopak using magnetic separation. Briefly, erythrocytes and granulocytes were magnetically labeled with Erythrocyte Depletion MicroBeads (Miltenyi Biotec) and Granulocyte Depletion MicroBeads (Miltenyi Biotec), respectively. The cell suspension was loaded onto a Multi-24 Column Block (Miltenyi Biotec) and placed in the magnetic field of a MultiMACS Cell24 Separator Plus (Miltenyi Biotec). The unlabelled PBMCs were collected in the run through. PBMCs were resuspended in CryoStor® CS10 ([…]) and frozen. On the day before the assay, PBMCs were thawed in warm assay buffer (RPMI+10% FBS) and resuspended in assay buffer+10 ng/ml hIL3 (R&D Systems). Cells were rested at 37° C.+5% CO2 overnight. The following day, cells were spun down and resuspended in fresh assay buffer. 300,000 cells were added to each well of plates containing test compound. For test compound preparation, each compound was initially diluted to 1 mM in DMSO and further diluted in assay buffer. A 4-fold 11-point titration starting from 15 μM was performed. Cells were incubated with test compound at 37° C.+5% CO2 for 24 hours before supernatant was harvested. Human interleukin 6 (hIL6), human tumor necrosis factor alpha (hTNFα), and human interferon alpha (hIFNα) were quantified in the supernatant using homogeneous time resolved fluorescence (Cisbio).
as §2

[2] = hIFNα in supernatant, EC50 values approximated and divided into groups, read-out: PBMC IFNa EC50

## CCOc1nc(N)c2nc(O)n(Cc3ccc(CN4CCN(C(=O)CCCCCNC(=O)CC(SC[C@@H](N)C(=O)O)C(=O)O)CC4)cc3OC)c2n1 (stereo partly drawn) [Compound 148, 2-(((S)-2-amino-2-carboxyethyl)thio)-4-((6-(4-(4-((6-amino-2-ethoxy-8-hydroxy-9H-purin-9-yl)methyl)-3-methoxybenzyl)piperazin-1-yl)-6-oxohexyl)amino)-4-oxobutanoic Acid]
hTLR7
  EC50: 0.167 µM
mTLR7
  EC50: 1.26 µM
[1]; [2]
  EC50: > 0.01 µM

## CCOc1nc(N)c2nc(O)n(Cc3ccc(CNC4CNC4)cc3OC)c2n1 [Compound 129, 6-amino-9-(4-((azetidin-3-ylamino)methyl)-2-methoxybenzyl)-2-ethoxy-9H-purin-8-ol]
hTLR7
  EC50: 0.0811 µM
mTLR7
  EC50: 0.541 µM
[1]; [2]
  EC50: > 0.01 µM

## CCOc1nc(N)c2nc(O)n(Cc3ccc(CNCCN4CCNCC4)cc3OC)c2n1 [Compound 134, 6-amino-2-ethoxy-9-(2-methoxy-4-(((2-(piperazin-1-yl)ethyl)amino)methyl)-benzyl)-9H-purin-8-ol]
hTLR7
  EC50: 0.363 µM
mTLR7
  EC50: 1.65 µM
[1]; [2]
  EC50: > 0.01 µM

## CCCCOc1nc(N)c2nc(O)n(Cc3ccc(CCNC4CCNCC4)cc3OC)c2n1 [Compound 179, 6-amino-2-butoxy-9-(2-methoxy-4-(2-(piperidin-4-ylamino)ethyl)benzyl)-9H-purin-8-ol]
hTLR7
  EC50: 0.181 µM
mTLR7
  EC50: 0.421 µM
[1]; [2]
  EC50: > 0.01 µM

## CCOc1nc(N)c2nc(O)n(Cc3ccc(CNCCCN4CCNCC4)cc3OC)c2n1 [Compound 131, 6-amino-2-ethoxy-9-(2-methoxy-4-(((3-(piperazin-1-yl)propyl)amino)methyl)-benzyl)-9H-purin-8-ol]
hTLR7
  EC50: 0.0861 µM
mTLR7
  EC50: 0.676 µM
[1]; [2]
  EC50: > 0.01 µM

## CCOc1nc(N)c2nc(O)n(Cc3ccc(CNC4CC5(CNC5)C4)cc3OC)c2n1 [Compound 130, 9-(4-(((2-azaspiro[3.3]heptan-6-yl)amino)methyl)-2-methoxybenzyl)-6-amino-2-ethoxy-9H-purin-8-ol]
hTLR7
  EC50: 0.202 µM
mTLR7
  EC50: 1.27 µM
[1]; [2]
  EC50: > 0.01 µM

## CCOc1nc(N)c2nc(O)n(Cc3ccc(CNC4CCNC4)cc3OC)c2n1 (stereo in doubt) [Compound 133, (S)-6-amino-2-ethoxy-9-(2-methoxy-4-((pyrrolidin-3-ylamino)methyl)benzyl)-9H-purin-8-ol]
hTLR7
  EC50: 0.178 µM
mTLR7
  EC50: 0.859 µM
[1]; [2]
  EC50: > 0.01 µM

## CCOc1nc(N)c2nc(O)n(Cc3ccc(CNC4CCCNC4)cc3OC)c2n1 (stereo not drawn) [Compound 127, 6-amino-2-ethoxy-9-(2-methoxy-4-((piperidin-3-ylamino)methyl)benzyl)-9H-purin-8-ol]
hTLR7
  EC50: 0.175 µM
mTLR7
  EC50: 1.03 µM
[1]; [2]
  EC50: > 0.01 µM

## CCOc1nc(N)c2nc(O)n(Cc3ccc(CN4CCN(C(=O)CCOCCOCCOCCNC(=O)CC(SC[C@@H](N)C(=O)O)C(=O)O)CC4)cc3OC)c2n1 (stereo partly drawn) [Compound 149, (19S)-19-amino-1-(4-(4-((6-amino-2-ethoxy-8-hydroxy-9H-purin-9-yl)methyl)-3-methoxybenzyl)piperazin-1-yl)-16-carboxy-1,14-dioxo-4,7,10-trioxa-17-thia-13-azaicosan-20-oic Acid]
hTLR7
  EC50: 0.52 µM
mTLR7
  EC50: 1.26 µM
[1]; [2]
  EC50: > 0.01 µM

## CCCCOc1nc(N)c2nc(O)n(Cc3ccc(CNCc4ccccc4)cc3OC)c2n1 [Compound 165, 6-amino-9-(4-((benzylamino)methyl)-2-methoxybenzyl)-2-butoxy-9H-purin-8-ol]
hTLR7
  EC50: < 0.0001 µM
mTLR7
  EC50: < 0.0001 µM
[1]; [2]
  EC50: < 0.0001 µM
[1]; hIL6 in supernatant, read-out: PBMC IL6 EC50
  EC50: 6.99 µM

## CCCCOc1nc(N)c2nc(O)n(Cc3ccc(CCN4CCC5(CCNCC5)CC4)cc3OC)c2n1 [Compound 177, 9-(4-(2-(3,9-diazaspiro[5.5]undecan-3-yl)ethyl)-2-methoxybenzyl)-6-amino-2-butoxy-9H-purin-8-ol]
hTLR7
  EC50: 0.411 µM
mTLR7
  EC50: 15.5 µM
[1]; [2]
  EC50: > 0.01 µM

## CCOc1nc(N)c2nc(O)n(Cc3ccc(CNC/C=C/CN)cc3OC)c2n1 [Compound 126, (E)-6-amino-9-(4-(((4-aminobut-2-en-1-yl)amino)methyl)-2-methoxybenzyl)-2-ethoxy-9H-purin-8-ol]
hTLR7
  EC50: 0.033 µM
mTLR7
  EC50: 0.659 µM
[1]; [2]
  EC50: > 0.01 µM

## CCOc1nc(N)c2nc(O)n(Cc3ccc(CNCC(O)CN4CCOCC4)cc3OC)c2n1 (stereo not drawn) [Compound 136, 6-amino-2-ethoxy-9-(4-(((2-hydroxy-3-morpholinopropyl)amino)methyl)-2-methoxybenzyl)-9H-purin-8-ol]
hTLR7
  EC50: 0.223 µM
mTLR7
  EC50: 1.71 µM
[1]; [2]
  EC50: > 0.01 µM

## CCCCCNc1nc(N)nc2ccn(Cc3ccc(CN4CCN(CCNC(=O)CC(SC[C@@H](N)C(=O)O)C(=O)O)CC4)cc3OC)c12 (stereo partly drawn) [Benchmark, reference compound]
hTLR7
  EC50: 0.027 µM
mTLR7
  EC50: 0.0954 µM
